Source: patent publication US8921328B2, “E-selectin antagonists” (GlycoMimetics, Inc., priority 2010, dated 2014)

molecular target: T1, E-selectin/IgG construct (Homo sapiens, UniProt P16581); experiment: BIAcore surface plasmon resonance (SPR)-based assay, serial dilutions of the ligand (absolute KD); details: twofold serial dilutions, 600 s association/600 s dissociation, HBS-P + 20 mm calcium + DMSO 5% v/v, read-out: KD values (absolute binding affinities)
T1 construct: fused on or other part: IgG Fc part (human, since it is captured by goat anti-human Fc antibody), fused on as a capture handle
T1 sequence (P16581 22-175 limits assumed): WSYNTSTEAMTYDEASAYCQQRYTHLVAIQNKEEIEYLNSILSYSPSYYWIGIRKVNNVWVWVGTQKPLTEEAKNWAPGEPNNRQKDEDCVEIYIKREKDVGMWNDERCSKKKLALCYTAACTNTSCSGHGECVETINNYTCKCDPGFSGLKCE
Protocol: The biological evaluation of the E-selectin antagonists was performed by surface plasmon resonance (SPR). For this purpose, an E-selectin/IgG construct was captured onto a BIAcore chip surface bearing covalently linked goat anti-human Fc specific antibody (Biacore Life Sciences, Uppsala, Sweden).
Evaluation of E-Selectin Antagonists with Surface Plasmon Resonance (SPR)-Based Assay
Ten twofold serial dilutions of the ligand were non-randomly injected. The E-selectin antagonists were diluted in running buffer (HBS-P supplemented with […] calcium and DMSO 5% v/v). Antagonist dilutions were injected with a 600 s association time and 600 s dissociation time at a flow rate of 20 μL/min over the reference and the active flow cell. […] In addition, to prevent the presence of residual traces of compound, a blank injection was performed between each injection of ligand dilution. DMSO calibration and double referencing were applied to correct bulk effects and other systematic artifacts (subtraction of reference surface and blank injection).

Kd [nM]	Compound
57	C[C@@H]1O[C@@H](O[C@@H]2[C@@H](C)C[C@@H](C(=O)NCc3cn(CCCn4ccc5cc([N+](=O)[O-])ccc54)nn3)C[C@H]2O[C@@H]2O[C@H](CO)[C@H](O)[C@H](O[C@@H](CC3CCCCC3)C(=O)O)[C@H]2OC(=O)c2ccccc2)[C@@H](O)[C@H](O)[C@@H]1O [Product 58, (1R,3R,4R,5S)-3-[2-O-Benzoyl-3-O-((1S)-1-carboxy-2-cyclohexyl-ethyl)-(β-D-galactopyranosyl)oxy]-4-[(α-L-fucopyranosyl)oxy]-5-methyl-N-({1-[3-(5-nitro-1H-indol-1-yl)propyl]-1H-1,2,3-triazol-4-yl}methyl)cyclohexanecarboxamide]
49	C[C@@H]1O[C@@H](O[C@@H]2[C@@H](C)C[C@@H](C(=O)NCCc3cn(CCCCn4ccc5cc([N+](=O)[O-])ccc54)nn3)C[C@H]2O[C@@H]2O[C@H](CO)[C@H](O)[C@H](O[C@@H](CC3CCCCC3)C(=O)O)[C@H]2OC(=O)c2ccccc2)[C@@H](O)[C@H](O)[C@@H]1O [Product 63, (1R,3R,4R,5S)-3-[2-O-Benzoyl-3-O-((1S)-1-carboxy-2-cyclohexyl-ethyl)-(β-D-galactopyranosyl)oxy]-4-[(α-L-fucopyranosyl)oxy]-5-methyl-N-(2-{1-[4-(5-nitro-1H-indol-1-yl)butyl]-1H-1,2,3-triazol-4-yl}ethyl)cyclohexanecarboxamide]
30	C[C@@H]1O[C@@H](O[C@@H]2[C@@H](C)C[C@@H](C(=O)NCCCc3cn(CCCn4ccc5cc([N+](=O)[O-])ccc54)nn3)C[C@H]2O[C@@H]2O[C@H](CO)[C@H](O)[C@H](O[C@@H](CC3CCCCC3)C(=O)O)[C@H]2OC(=O)c2ccccc2)[C@@H](O)[C@H](O)[C@@H]1O [Product 66, (1R,3R,4R,5S)-3-[2-O-Benzoyl-3-O-((1S)-1-carboxy-2-cyclohexyl-ethyl)-(β-D-galactopyranosyl)oxy]-4-[(α-L-fucopyranosyl)oxy]-5-methyl-N-(3-{1-[3-(5-nitro-1H-indol-1-yl)propyl]-1H-1,2,3-triazol-4-yl}propyl)cyclohexanecarboxamide]
110	CC1CC(C(=O)NCCCN2CCN(CCCn3ccc4cc([N+](=O)[O-])ccc43)CC2)C[C@@H](O[C@@H]2OC(CO)[C@H](O)C(O[C@@H](CC3CCCCC3)C(=O)O)C2OC(=O)c2ccccc2)C1O[C@@H]1OC(C)[C@@H](O)C(O)C1O (stereo partly drawn) [Product 82, (1R,3R,4R,5S)-3-[2-O-Benzoyl-3-O-((1S)-1-carboxy-2-cyclohexyl-ethyl)-(β-D-galactopyranosyl)oxy]-4-[(α-L-fucopyranosyl)oxy]-5-methyl-N-(3-{1-[3-(5-nitro-1H-indol-1-yl)propyl]piperazin-1-yl}propyl)cyclohexanecarboxamide]
